Results reported in US6949558B2, “Enhancement of taxane-based chemotherapy by a CDK1 antagonist” (Yale University, priority 2001, dated 2005).
“And” between values parts separate entries of the source, which are not always exact repeats. Equal values may be shown once.

What was measured:
MCF-7 cells = assay: Apoptosis by DNA content analysis and flow cytometry in MCF-7 cells; assay type: cell-based, human
Protocol: Cervical carcinoma HeLa (functionally inactivated p53) cells or breast carcinoma MCF-7 (wild type p53) cells were plated at 50-60% confluency in C-6 wells. […]
(§1) After 4, 8, 16, and 32 hours of incubation, without removing taxol from the wells, purvalanol A was added at three increasing concentrations, 1, 10 and 20 uM (FIG. 1). A control was performed with addition of purvalanol A at the 0-h time point.
(§2) The cell populations were harvested at increasing time intervals from the 0-h time point or corresponding to the addition of purvalanol A. Apoptosis was analyzed by DNA content analysis and flow cytometry (DAPI staining).

[1] = tested on: survivin expression in PC3 cells; assay: Survivin expression by Western blotting in PC3 cells; assay type: cell-based; settings: taxol then Purvalanol A
[2] = tested on: survivin phosphorylation on Thr^34 in HeLa cells; assay: Survivin phosphorylation on Thr^34 in HeLa cells (immunoprecipitation, Western blotting); assay type: cell-based, human; settings: taxol 0.2 μM 16 h then Purvalanol A 20 μM 16 h
Protocol: A. In vitro kinase assay. […] Radioactive bands were detected by autoradiography. […] The immune complexesb were analyzed by Western blotting (WB) with an antibody to Thr^34-phosphorylated survivin (a-survivinT34*, top panel) or with an antibody to survivin (a-survivin, lower panel) followed by chemiluminescence. For all panels, relative molecular weight markers in kDa are shown on the left.
(§3) In some experiments, total RNA was extracted from MCF-7 cells at various time intervals after adriamycin treatment, and hybridized with 32 P-labeled survivin cDNA as described previously. Radioactive bands were detected by autoradiography. […] In other experiments, samples were transferred to nylon membranes and analyzed by Western blotting with antibodies to p34^cdc2 (1 μg/ml), survivin (2 μg/ml), or survivinT34* (5 μg/ml).
Luciferase values were normalized to β-galactosidase expression.

HeLa cells [3] = assay: Apoptosis by DNA content analysis and flow cytometry in HeLa cells; assay type: cell-based, human
Protocol: Cervical carcinoma HeLa (functionally inactivated p53) cells or breast carcinoma MCF-7 (wild type p53) cells were plated at 50-60% confluency in C-6 wells. Cells were treated with taxol at 0.2 μM for 0 to 32 hours in complete media.
as §1, §2

HeLa cells [4] = assay: as above; assay type: cell-based, human; remark: listed apart in the source
caspase-9 = assay: Caspase-9 processing by Western blotting in HeLa cells; settings: taxol 0.2 μM, Purvalanol A 20 μM or sequential combination, 16 h
MCF-7 tumors = assay: Breast cancer xenograft model (Example 8); assay type: in vivo, CB17 SCID/beige mice; settings: taxol alone 2.5 or 5 mg/kg, Purvalanol A alone 20 mg/kg, i.p.
Protocol: Breast Cancer Xenograft Model: All experiments involving animals were approved by the institutional animal cure and use committee. Six- to eight-week old female CB17 SCID/beige mice (Taconic Farms, Germantown, N.Y.) were injected s.c. into the flanks with 2.5×10^6 exponentially growing MCF-7 cells in 250 μl of sterile PBS, pH 7.4. […] Animals were injected i.p. with taxol alone (2.5 or 5 mg/kg), Purvalanol A alone (20 mg/kg) or the sequential combination of taxol-Purvalanol A for two consecutive days each divided by a day with no treatment. For single agent treatment, vehicle was given in place of taxol or Purvalanol A with the same schedule. Each complete cycle was separated by 2 d without treatment. Tumor volume was measured in the three dimensions with a caliper. Animals with tumor burden >3000 mm^3 were sacrificed (Survival).
Statistical Analysis: All in vitro experiments were repeated at least three times. […] The survival curves were compared using the log-rank test. This test generates a P value testing the null hypothesis that the survival curves are identical in the overall populations.

[5] = tested on: survivin expression in HeLa cells; assay: Survivin expression by Western blotting in HeLa cells; assay type: cell-based, human
Protocol: (§4) Cell Cultures, Proteins and Antibodies: Breast carcinoma MCF-7 and cervical carcinoma HeLa cells (American Type Culture Collection, Manassas, Va.) were maintained in culture according to the manufacturer's specifications. For treatment with genotoxic agents, HeLa or MCF-7 cells were incubated with vehicle (DMSO) or taxol (2 μM, Sigma Chemical Co., St. Louis, Mo.), adriamycin (100 nM, Sigma), cis-platin (3 μM, Sigma) or subjected to ultraviolet B (UVB) irradiation at 50 or 300 J/m^2. In some experiments, HeLa or MCF-7 treated with taxol, adriamycin or UVB as described above were incubated with inhibitors of transcription (actinomycin D, 1 μg/ml) or translation (cycloheximide, 2 mg/ml) before determination of protein expression by Western blotting. […] A replication-deficient adenovirus encoding wild type survivin (pAd-Survivin) or control encoding Green Fluorescence Protein (pAd-GFP) was generated using the pAd-Easy system as described previously (M. Mesri et al. (2001) J. Clin. Invest. 108: 981-90), and propagated in HEK293 cells with purification by CsCl banding. […] Antibodies to p34^cdc2 or bcl-2 were obtained from Pharmingen (San Diego, Calif.) and R&D, respectively. An antibody to β-actin was from Sigma and antibodies to MPM-2 mitotic phosphoproteins was from Upstate Biotechnology (Lake Placid, N.Y.).
as §3
In other experiments, HeLa cells were treated with taxol (0.2 μM) for 16 h followed by the DNA damaging agent adriamycin (100 nM, Sigma) or the nucleoside analog 5-Fluorouracil (500 μM, Sigma) for 8-32 h at 37° C. […] In some experiments, HeLa cells were transfected by lipofectamine with a minimal survivin promoter construct upstream of a luciferase reporter gene (pLuc-cyc1.2), as described (F. Li et al. (1998) Nature 396: 580-584). Cells were treated with taxol (2 μM) or UVB (50 J/m2), and analyzed for changes in luciferase activity at increasing time intervals (12-36 h) in a luminometer. Luciferase values were normalized to β-galactosidase expression. […] The immune complexes were separated by SDS gel electrophoresis and analyzed with antibodies to survivin or a-survivinT34* by Western blotting.

[6] = tested on: p34^cdc2 kinase activity (MPM-2 epitope) in HeLa cells; assay: MPM-2 mitotic phosphoepitope expression (p34^cdc2 kinase activity) in HeLa cells; assay type: cell-based, human
[7] = tested on: survivin mRNA in MCF-7 cells; assay: Northern hybridization of survivin mRNA in MCF-7 cells; assay type: cell-based, human; settings: adriamycin-treated MCF-7 cells
Protocol: as §3

[8] = tested on: survivin expression in MCF-7 cells; assay: Survivin expression by Western blotting in MCF-7 cells; assay type: cell-based, human; settings: 100 nM adriamycin
Protocol: as §4, §3

MCF-7 xenografts = assay type: in vivo; settings: adriamycin 2 mg/kg or flavopiridol 15 mg/kg alone, i.p.
From the text: Each complete cycle was separated by 2 d without treatment.
This test generates a P value testing the null hypothesis that the survival curves are identical in the overall populations.

[9] = tested on: p34^cdc2 kinase activity (MPM-2 epitope) in MCF-7 cells; assay: MPM-2 mitotic phosphoepitope expression (p34^cdc2 kinase activity) in MCF-7 cells; assay type: cell-based, human; settings: adriamycin-induced G2/M arrest
Protocol: MPM-2 Mitotic Phosphoepitope Expression: For detection of mitotic phosphoproteins (D. D. Vandre et al. (1989) J. Cell Sci. 94: 245-58), MCF-7 cells (1-2×10^5 cells/60 mm dish) were treated with taxol (2 μM), adriamycin (100 nM), 50 or 300 J/m^2 UVB irradiation and cultured for 0, 8, 16, 24 or 36 h at 37° C. Cells were fixed in 70% ethanol, labeled with MPM-2 antibody (6 μg/ml) followed by addition of goat anti-mouse FITC (Boehringer Mannheim) for 1 h at 22° C. in the presence of 5 μg/ml propidium iodide (PI) containing 50 μg/ml RNase A. Samples were analyzed on a FACScan (Becton Dickinson, Mountain View, Calif.), using CellQuest software.
MPM-2 Mitotic Phosphoepitope Expression: For detection of mitotic phosphoproteins (D. D. Vandre et al. (1989) J. Cell Sci. 94: 245-258), MCF-7 cells (1-2×10^5 cells/60 mm dish) were treated with taxol (0.2 μM), or vincristine (100 nM) for increasing time intervals (8-36 h) at 37° C. Cells were fixed in 70% ethanol, labeled with MPM-2 antibody (6 μg/ml; Upstate Biotechnology, Lake Placid, N.Y.) followed by addition of goat anti-mouse FITC (Boehringer Mannheim) for 1 h at 22° C. in the presence of 5 μg/ml propidium iodide containing 50 μg/ml RNAse A. Samples were analyzed on a FACScan (Becton Dickinson, Mountain View, Calif.), using CellQuest software. Data are expressed as %MPM-2 positive cells in the entire population.

[10] = taxol 2 μM, adriamycin 100 nM, cis-platin 3 μM (Example 7)

CC(C)[C@H](CO)Nc1nc(Nc2cccc(Cl)c2)c2ncn(C(C)C)c2n1 [Purvalanol A]
efficacy of taxol followed by purvalanol A compared with HeLa cells (MCF-7 cells; taxol 0.2 μM then purvalanol A): nearly identical | synergy with vincristine treatment (MCF-7 cells; vincristine 10 nM and 100 nM then purvalanol A 10 uM): did not synergize with vincristine treatment | effect on taxol-induced increase of survivin expression [1]: reversed | phosphorylation of endogenous survivin on Thr^34 [2]: suppressed phosphorylation of endogenous survivin on Thr^34 | cell population with hypodiploid (apoptotic) DNA content / cell death (HeLa cells [3]; HeLa, 16 h, taxol 0.2 μM, Purvalanol A 20 μM, alone or sequential): 6% | cell cycle arrest (HeLa cells [3]; HeLa, taxol 0.2 μM or purvalanol A 1-20 uM alone (Examples 1, 2)): strong M arrest | apoptosis (HeLa cells [3]; HeLa, taxol 0.2 μM then 20 uM purvalanol A, 8 h after purvalanol A addition): 40% | effect of purvalanol A on taxol-treated cells, concentration dependence (HeLa cells [3]; purvalanol A 1, 10 and 20 uM added after taxol 0.2 μM): dose dependent | vincristine-induced apoptosis in the presence or the absence of Purvalanol A (HeLa cells [4]; after 96 h): indistinguishable | apoptosis, purvalanol A alone or reversed schedule (HeLa cells [4]; purvalanol A 1, 10, 20 uM alone or followed by 0.2 uM taxol): no apoptosis at all | apoptosis (HeLa cells [4]; taxol 0.2 μM then 20 uM purvalanol A, 16 h after purvalanol A addition): ~90% | effect of sequential addition to taxol-treated cells (HeLa cells [4]; taxol 0.2 μM then Purvalanol A): escape from the mitotic block, and massive apoptosis | apoptosis (HeLa cells [4]; vincristine then Purvalanol A, throughout a 32-h culture): did not result in induction of apoptosis | caspase-9 processing (caspase-9): did not result in significant caspase-9 cleavage | kinetics of tumor growth (MCF-7 tumors): did not affect the kinetics of tumor growth | survivin levels ([5]; Purvalanol A alone or Purvalanol A followed by taxol): did not affect survivin levels | survivin expression ([5]; taxol 0.2 μM 16 h then Purvalanol A 20 μM 16 h): inhibition of increased survivin expression after taxol treatment | survivin expression ([5]; vincristine then Purvalanol A): reversed the increase in survivin expression | inhibition of kinase activity (MPM-2 epitope) ([6]; 16 h after addition of purvalanol A in taxol-treated cells, cell line not stated): 70-80% | MPM-2 mitotic phosphoepitope expression ([6]; HeLa, taxol 0.2 μM 16 h then Cdk inhibitor for 16 h (Purvalanol A 10 μM, alsterpaullone 20 μM, flavopiridol 250 nM, olomoucine 400 μM)): completely suppressed MPM-2 mitotic phosphoepitope expression | MPM-2 mitotic phosphoepitope expression ([6]; HeLa, taxol 0.2 μM 16 h then Cdk inhibitor for 32 h): completely suppressed MPM-2 mitotic phosphoepitope expression | p34^cdc2 kinase activity ([6]; HeLa, vincristine 100 nM then Purvalanol A 20 μM, earliest time point tested of 8 h): suppressed p34^cdc2 kinase activity

COc1cccc2c1C(=O)c1c(O)c3c(c(O)c1C2=O)C[C@@](O)(C(=O)CO)C[C@@H]3O[C@H]1C[C@H](N)[C@H](O)[C@H](C)O1 [adriamycin, doxorubicin]
survivin mRNA [7]: no detectable increase in survivin mRNA | apoptosis (MCF-7 cells; adriamycin 100 nM alone, three values given, their conditions not stated): 2% and 3% and 10% | apoptosis (MCF-7 cells; [10]): negligible apoptosis | cell cycle arrest (MCF-7 cells; [10]): G2/M arrest | enhancement of taxol-induced cell death (MCF-7 cells; taxol then adriamycin 100 nM and 200 nM in place of purvalanol A): did not enhance taxol-induced cell death | survivin expression [8]: increased survivin expression | enhancement of apoptosis vs single agent treatment (HeLa cells [4]; taxol 0.2 μM 16 h then adriamycin 100 nM or 5-Fluorouracil 500 μM): did not result in enhanced apoptosis | kinetics of tumor growth vs vehicle (MCF-7 xenografts): did not affect the kinetics of tumor growth | residual cell population exhibiting MPM-2 expression [9]: 20-25%
